# Experimental data reported in patent publication US11066421B1, “Synthetic cinchona alkaloids against cancer” (Ares Pharmaceuticals, LLC, priority 2021, dated 2021).
# “Also recorded” adds a separate entry of the source.
# Assays:
# Type in all cases: cell-based, human
# [1] = tested on: primary leukemia/lymphoma cells; test: Annexin V flow cytometric apoptosis assay in primary cells from patients
# Protocol: Apoptotic death was monitored using multiparameter flow cytometry, as previously reported (F. M. Uckun, et al., 2011, British Journal of Haematology, 153:741-752; F. M. Uckun et al., 2015, J Clin Invest., 125:1006-18). Controls included vehicle (PBS) treated cells (CON). Cells were analyzed for apoptosis using the standard quantitative flow cytometric apoptosis assay using the Annexin V-FITC Apoptosis Detection Kit from Sigma. The labeled cells were analyzed on a flow cytometer. The percent apoptosis was calculated using the formula: 100-100×(Percentage of non-apoptotic cells in test sample/Percentage of non-apoptotic cells in untreated control sample). The percentages for Annexin V FITC^−PI^− viable cells and Annexin V-FITC^+PI^+ advanced apoptotic cells for each sample are indicated in the respective quadrants of the depicted two-color fluorescence dot plots.
# We examined the ability AP-5 to cause apoptotic death in freshly obtained primary cancer cells from Ficoll-Hypaque separated, highly enriched populations of primary leukemia/lymphoma cells isolated from bone marrow (BM, N=13) or peripheral blood (PB, N=13) specimens of 26 patients with hematological malignancies, 3 patients with rare forms of leukemia (one each with prolymphocytic leukemia [PLL], plasma cell leukemia [PCL], large granular cell leukemia [LGL]), one patient with chronic myeloid leukemia in blast crisis (CML-BC), including 8 patients with chronic lymphocytic leukemia (CLL)/well differentiated lymphocytic lymphoma (WDLL), one patient with acute myeloid leukemia (AML), 11 patients with B-lineage acute lymphoblastic leukemia (ALL) and 2 patients with T-lineage ALL (FIG. 1). Cells were treated with standard chemotherapeutic agents at various concentrations provided in RPMI-1640 medium supplemented with 10% fetal bovine serum (FBS) and incubated at 37° C. for 24 hr. Dexamethasone (DEQ.) was used. at 50 μg/ml, Adriamycin (ADR) at 10 μg/ml, vincristine (VCR), gemcitabine (GEM), fludarabine (FLU), methotrexate (MTX), etoposide (ETO), cytarabine (ARA-C) and cladribine (2-CDA) at 25 μg/ml. The cells were washed with serum-free RPMI-1640 medium and then processed for apoptosis assays. […]
# Apoptotic death was monitored using multiparameter flow cytometry, as previously reported (F. M. Uckun et at, 2006, Brit Journal of Hematol. 135:500-8; F. M. Uckun et al., 2011, Brit Journal of hematol. 153:741-52; F. M. Uckun et al., 2015, J. Clin. Invest. 125:1006-18). Exposure of phosphatidylserine to the outer leaflet of the leukemic cell membrane was measured using fluorescein isothiocyanate (FITC)-conjugated annexin V, the natural ligand of phosphatidylserine (R&D Systems, Minneapolis, Minn., USA). […] The labelled cells were analyzed using a FACS Vantage flow cytometer (Becton Dickinson, Mountain view, CA, USA). […]
# BT-20 = test: Confocal laser scanning microscopy apoptosis, BT-20; conditions: 100 nM, 48 hours
# Protocol: (§1) Confocal Laser Scanning Microscopy. Cells were treated with cinchona alkaloids or PBS in culture medium for 48 hours. After 48 hr of culture, cells were co-stained with a rabbit polyclonal antitubulin antibody (Green Fluorescence) and the DNA-specific dye Toto-3 (Blue Fluorescence) and examined by laser scanning confocal microscopy using a Bio-Rad MRC-1024 Laser Scanning Confocal Microscope equipped with a Kr/Ar laser (Bio-Rad, Hercules, Calif., USA) mounted on a Nikon Eclipse E800 upright microscope with high numerical aperture objectives (Nikon, Melville, N.Y., USA), as described (F. M. Uckun, et al., 2010, Proc. Natl. Acad. Sci. USA, 107: 2902-7; F. M. Uckun., et al., 2010, British Journal of Haematology, 149: 508-17; F. M. Uckun, et al., 2013, Blood. 121:4348-54; F. M. Uckun et al., 2010, Proc. Natl Acad. Sci. USA 107:16852-57; F. M. Uckun et al., 2012, Proc. Natl Acad. Sci. USA 109:18072-77). Cell lines. BT-20 (ATCC HTB-19), a triple negative breast cancer cell line, PC-3 (ATCC CRL-1435) a CRPC cell line (small cell endocrine carcinoma) derived from a Stage IV prostate cancer patient with bone metastases were obtained from American Type Culture Collection (ATCC) (Manassas, Va.). […] Cells were washed in PBS and counterstained with the DNA-specific dye TOTO-3 (blue fluorescence) (Molecular Probes Inc., Eugene, Oreg.) for 10 min at a dilution of 1:1000. […]
# PC-3 = test: Confocal laser scanning microscopy apoptosis, PC-3; conditions: 100 nM, 48 hours
# Protocol: as §1
# [2] = 24 hr in vitro exposure, primary cells from 26 patients
substance,measurement,setting,value
"2,4,6-Tri (9-O-dihydrocinchoninyl)pyrimidine [AP-5]",% apoptosis (Mean±SE),[1]; [2],93.5±1.1%
same,median percentage of apoptosis,[1]; [2],96.1%
same,% apoptosis (range),"[1]; 24 hr in vitro exposure, primary cells from 26 patients, range",79.9-99.6%
same,potency versus standard chemotherapy drugs tested side by side,"[1]; 24 hr, % apoptosis compared",substantially more potent than any of the 9 standard chemotherapy drugs tested side by side
same,signs of apoptosis by confocal imaging,BT-20,virtually all of the BT-20 or PC-3 cells treated with AP-5 showed signs of advanced apoptosis; also recorded: virtually all of the BT-20 cells treated with AP-5 showed signs of advanced apoptosis
same,signs of apoptosis by confocal imaging,PC-3,virtually all of the BT-20 or PC-3 cells treated with AP-5 showed signs of advanced apoptosis; also recorded: virtually all of the PC-3 cells treated with AP-5 showed signs of advanced apoptosis
